According to patent US20060258581A1, “Methods and composition for derepressions of IAP-inhibited caspase” (priority 2001, published 2006):
Where two headings read alike, the source gives them in different places.

Legend:
Assay type in all cases: cell-based
[1] = test system: mouse embryo fibroblasts, human prostate epithelial cells, peripheral blood lymphocytes; assay: Normal cells (MEFs, human prostate epithelial cells, PBLs), 2 days, annexin-V; parameters: dose or concentration left out as unconfirmed
Experimental: After 2 days, cell viability was assessed by annexin-V staining.

Jurkat leukemia cells [2] = assay: Jurkat leukemia cell death, Annexin V/propidium iodide flow cytometry
Jurkat leukemia cells [3] = assay: as above; details: for cells killed: one day treatment
Experimental: The following assay was used to test the ability of individual compounds from the TPI 1396 and TPI 1391 libraries to induce apoptosis of cultured tumor cell lines. Each of the compounds listed in Table IX was individually added to Jurkat leukemia cells (6.25×10^5 cells/mL) in RPMI containing 2.5% FBS at various concentrations for 20 hours. After incubation, cells were washed and stained with FITC-conjugated Annexin V antibody and propidium iodide (Biovision; Mountain View, Calif.). Cells were incubated for 20 minutes at room temperature in the dark and fluorescence was measured by flow cytometry (FACScan, Immunocytometry system; Becton-Dickinson; San Jose, Calif.). Cells staining positive for Annexin V were deemed non-viable.
The TPI I396-34 and TPI 1391-28 compounds were further tested as set forth below.

In the case of `COc1ccc(CCN2CCC[C@@H]2CN(C(=O)Nc2ccccc2)[C@@H](CNC(=O)Nc2ccccc2)CC2CCCCC2)cc1` [TPI 1396-34], the “increase of percentage cell death above background” value [1] is reported as “less than one-fold”, the “time to half-maximal killing” value (Jurkat leukemia cells [2]; 10 µM) is reported as “approximately 12 hours” and the “apoptosis in the presence of zVAD-fmk” value (Jurkat leukemia cells [2]; 100 μM zVAD-fmk, 20 hours) is reported as “suppressible”. The cells killed (Jurkat leukemia cells [3]; 5 μM) was “about 75%”, the cells killed (Jurkat leukemia cells [3]; 8 μM) was ~85% and the “time to maximum killing” value (Jurkat leukemia cells [3]; 10 µM) was “about 24 hours”. For the same molecule, the cytotoxicity at 1 µM (Jurkat leukemia cells [3]; Homo sapiens, Jurkat, 20 h, 1 μM, 20 hours, read-out: % nonviable cells) was 13%, the cytotoxicity at 5 µM (Jurkat leukemia cells [3]; Homo sapiens, Jurkat, 20 h, 5 μM (first column headed 5), 20 hours, read-out: % nonviable cells) was 73% and the cytotoxicity at 5 µM (Jurkat leukemia cells [3]; Homo sapiens, Jurkat, 20 h, 5 μM (second column headed 5), 20 hours, read-out: % nonviable cells) was 51%. It also gave a cytotoxicity at 10 µM (Jurkat leukemia cells [3]; Homo sapiens, Jurkat, 20 h, 10 μM, 20 hours, read-out: % nonviable cells) of 62%, a cytotoxicity at 25 µM (Jurkat leukemia cells [3]; Homo sapiens, Jurkat, 20 h, 25 μM, 20 hours, read-out: % nonviable cells) of 83% and a cytotoxicity at 50 µM (Jurkat leukemia cells [3]; Homo sapiens, Jurkat, 20 h, 50 μM, 20 hours, read-out: % nonviable cells) of 85%. For the same molecule, the EC50 (Jurkat leukemia cells [3]; Homo sapiens, Jurkat, 24 h, one-day exposure, read-out: EC50 for killing Jurkat leukemia cells) was ~6.5 µM.
